Source: ChEMBL document CHEMBL1142806, “Synthesis and assay of isoquinoline derivatives as HIV-1 Tat-TAR interaction inhibitors” (Bioorg Med Chem Lett, 2005)

How the values were obtained:
[1] = Percent inhibition of SIV-induced syncytium in CEM174 cells; type: functional
[2] = Effective concentration required to inhibit SIV induced syncytium in CEM174 cells; type: functional, cell-based
[3] = Binding constant to TAR at 0.357e-4 M concentration
[4] = Binding constant to TAR at 1.107e-4 M concentration
[5] = Binding constant to TAR at 0.814e-4 M concentration
[6] = Binding constant to TAR at 0.393e-4 M concentration

| SMILES | Inhibition [1] [%] | EC50 [2] [µM] | K [3] | K [4] | K [5] | K [6] |
| --- | --- | --- | --- | --- | --- | --- |
| N=C(N)NCCNC(=O)c1cc2ccccc2cn1.O=S(O)O | 56.2 | 6.86 | 207000 | – | – | – |
| NCCCNC(=O)c1cc2ccccc2cn1 | 58.7 | 8.74 | – | 15400 | – | – |
| NCCNC(=O)c1cc2ccccc2cn1 | 44.2 | 12.9 | – | – | 33000 | – |
| N=C(N)NCCCNC(=O)c1cc2ccccc2cn1.O=S(O)O | 60.7 | 3.92 | – | – | – | 169000 |
